pEC50: −log10 of the molar value. Converted amounts (≈) assume the structure as drawn. “Also recorded” adds a separate entry of the source. Read-outs that look alike come from different tables or passages of the source.
How the values were obtained:
[1] = Metabolic stability (Cerep); format: in vitro ADME, human; settings: 10 µM, 5 time points
Description: (§1) To evaluate the relative binding specificity of LM22A-4 ([Massa et al., 2010]) and PTX-BD4-3, binding to a broad range of 55 pharmacologically relevant receptors, including numerous neurotransmitter and G-protein coupled receptors was assessed using standard radioligand competition binding assays (ExpressSProfile) performed by Cerep, Inc. (Seattle, WA, USA). In addition, ADME-Tox analysis was performed by Cerep, Inc. All experimental conditions are described on the Cerep website (www.cerep.fr).
(§2) Aqueous Human CYP inhibition (10µM) AMES hERG solubility hepatocyte DNA testing
(§3) (µM) metabolic mutagenesis
(§4) PTX‐BD4‐3 200 >60 negative negative negative
Table S2. Solubility, metabolism and toxicity screens for LM22A-4 […]
and PTX-BD4-3. […]
(also on this page, place not known: Disease Models & Mechanisms: doi:10.1242/dmm.044685: Supplementary information Disease Models & Mechanisms • Supplementary information)

[2] = Brain:plasma partitioning (LC-MS/MS); format: in vivo, mouse; settings: mice; for concentration at 1 h / concentration at 3 h / Kp at 1 h / Kp at 3 h / plasma levels: 50 mg/kg i.p.; for Kp at 1 h / Kp at 3 h: brain/plasma, read-out: brain-to-plasma ratio; for concentration at 1 h / Kp at 1 h / plasma levels: 1 h; for plasma levels: in nM (unit assumed)
Description: Brain and plasma concentrations of LM22A-4, PTX-BD4-3 and atenolol were determined by LC-MS/MS by Absorption Systems (Exton, PA, USA). Male C57BL/6 were dosed intraperitoneally one time with LM22A-4 or PTX-BD4-3 suspended in water at 50 mg/kg (10 ml/kg). Mice were sacrificed at 1 h or 3 h post dose (n=3-4 mice/time point), and brain and plasma samples were collected.
Figure S1. Brain and plasma levels, and brain to plasma ratios for […]
PTX-BD4-3 following IP administration in Wt mice. Brain and plasma levels were determined by LC-MS/MS and used to calculate the brain:plasma ratios at 1 and 3 hours after IP administration of 50 mg/kg LM22A-4 (black), or PTX- […]
in mice (n=11-12 mice/time point; data shown are mean + s.e.m.)
*p<0.05 compared to LM22A-4 at same time point; one-tailed Student’s t-test. […]

[3] = system: TrkB; test: Shc adaptor protein recruitment to TrkB in HCEMs (IP/western blot); format: cell-based, human; settings: 1 h, compounds 1000 nM, BDNF 0.7 nM
Source text: Fig. 2. […] Scale bar: 10 μm. […] Scale bar: 10 μm.

[4] = system: 4 different strains of Salmonella typhimurium; test: AMES DNA mutagenesis (Cerep); format: cell-based; settings: 5, 10, 50 and 100 µM; 4 strains
Description: as §1, §2, §3, §4
(§5) Table S2. Solubility, metabolism and toxicity screens for LM22A-4 and PTX-BD4-3. Standardized assays of solubility, metabolic stability and in vitro toxicity were performed to further evaluate the potential of PTX-BD4-3 as a lead candidate molecule for the treatment of Rett syndrome, and to compare its profile to that of the parent compound LM22A-4. Aqueous solubility of both compounds, which is used as a surrogate measure of absorption, was at or near the assay maximum of 200 µM. The metabolic stability of both compounds at 10 µM was evaluated at 5 different time points in […] and found to be >60 min, indicating favorable stability. […]

[5] = Aqueous solubility (Cerep); format: physicochemical; settings: assay maximum 200 µM
Description: as §1, §2, §3, §4, §5

[6] = system: E16 mouse hippocampal neurons; test: Hippocampal neuron survival (ViaLight assay and Tuj1-positive cell counts); format: cell-based; settings: for neurotrophic activity in the presence of function-blocking anti-TrkB^ECD antibody: compounds 1000 nM, BDNF 20 ng/ml, vs control antibody
Source text: To further confirm that PTX-BD4-3 promotes biologically relevant activity through TrkB, we examined the effect of PTX-BD4-3 on survival of cultured hippocampal neurons, using two different methods (Fig. 3A-C). […] It would be expected that although there is a correlation between survival status and mitochondrial metabolic status, one could have some degree of variability in metabolic function for a given level of cell survival. […] Because the plateau effect of PTX-BD4-3 on survival was observed between 500 nM and 1000 nM, we chose 1000 nM as a standard concentration for subsequent mechanistic studies.
Fig. 3. […] (A) Fluorescence photomicrographs (original magnification, ×40) of Tuj1-immunostained E16 mouse hippocampal neuronal cultures treated with culture medium (CM) alone, BDNF, LM22A-4 or PTX-BD4-3 for 48 h. Scale bar: 10 μm. (B) Neuron survival dose-response curves for LM22A-4 and PTX-BD4-3 were generated using the ViaLight assay; data were normalized to survival achieved with 20 ng/ml (∼0.7 nM) BDNF and compared with wells receiving culture medium medium (CM) alone. n=10-32 wells per group derived from four to five independent experiments. (C) Survival analysis of hippocampal neurons treated with either 20 ng/ml BDNF, 500 nM or 1000 nM LM22A-4 or 500 nM or 1000 nM PTX-BD4-3 for 48 h. Tuj1-positive cells counts were normalized to the survival achieved with BDNF and compared with wells treated with […]. n=32-40 wells per group derived from six independent experiments. Statistical significance in B and C was determined by one-way ANOVA with Dunnett's post hoc multiple comparison tests. *P≤0.05, ^§P≤0.001 compared to control (CM). (D) Survival of hippocampal neurons treated with CM, 20ng/ml BDNF (B), 1000 nM LM22A-4 or 1000 nM PTX-BD4-3 with or without anti-TrkB antibody (Bab) or non-immune serum (non). n=37-42 wells per group derived from five independent experiments. *P≤0.05, **P≤0.01, ***P≤0.001 (non vs Bab), Mann-Whitney test; *P≤0.05, ^ψP≤0.01, ^§P≤0.001 (compared to CM), one-way ANOVA with Dunnett's post hoc multiple comparison test.
Hippocampal neuron cultures were prepared from E16 CF1 mouse fetuses as described previously ([Yang et al., 2006]). Under the low-density conditions used here, neuronal survival is dependent, in part, on addition of exogenous neurotrophins ([Yang et al., 2008]; [Walter et al., 2011]). LM22A-4 and PTX-BD4-3 were dissolved in water at a stock concentration of 10 mM prior to dilution (1:10,000) in culture medium. Cell survival following a 48-h exposure to BDNF, LM22A-4 or PTX-BD4-3 was quantified by either counting β-tubulin III-positive cell bodies ([Massa et al., 2006]; [Walter et al., 2011]) or by the ViaLight Assay described above.

[7] = male, C57BL/6, mouse, brain, ip, read-out: brain levels
[8] = male, C57BL/6, mouse, plasma, ip, read-out: plasma level

In the case of `O=C(NCCO)c1cc(C(=O)NCCO)cc(C(=O)NCCO)c1` [LM22A-4, N,N′,N′′-tris(2-hydroxyethyl)-1,3,5-benzenetricarboxamide, reference compound], the “Human hepatocyte metabolic stability” value [1] was > 60 min, the concentration at 1 h [2, 7] was 0.2 µM and the concentration at 3 h [2, 7] was 0.0532 µM. For the same compound, the Kp at 1 h ([2]; male, C57BL/6, mouse, ip) was 0.0268, the Kp at 3 h ([2]; male, C57BL/6, mouse, ip) was 0.133 and the concentration at 3 h [2, 8] was 2350 µM. The plasma levels [2] was 9193.46, the “Shc recruitment to TrkB (ratio of Shc to TrkB)” value [3] was “promoted Shc recruitment to TrkB” and the “AMES DNA mutagenesis” value [4] was “negative”. For the same compound, the solubility [5] was 180 µM (≈ 61.2 µg/mL) and the “neurotrophic activity in the presence of function-blocking anti-TrkB^ECD antibody” value [6] was “reduction”.
In the case of `COCCN(C)C(=O)c1cc(C(=O)N(C)CCOC)cc(C(=O)N(C)CCOC)c1` [PTX-BD4-3, benzene-1,3,5-tricarboxylic acid tris-[(2-methoxy-ethyl)-methyl-amide]], the “Human hepatocyte metabolic stability” value [1] was > 60 min, the half-life ([2]; male, C57BL/6, mouse, brain and plasma, ip, 50 mg/kg, systemic (i.p.) administration) was < 3 h and the concentration at 1 h [2, 7] was 0.227 µM. For the same compound, the concentration at 3 h [2, 7] was 0.0361 µM, the Kp at 1 h ([2]; male, C57BL/6, mouse, ip) was 0.0329 and the Kp at 3 h ([2]; male, C57BL/6, mouse, ip) was 0.271. The concentration at 3 h [2, 8] was 361 µM, the plasma levels [2] was 10011.16 and the “Shc recruitment to TrkB (ratio of Shc to TrkB)” value [3] was “promoted Shc recruitment to TrkB”. The “AMES DNA mutagenesis” value [4] was “negative; also recorded: no activity”, the solubility [5] was 200 µM (≈ 84.7 µg/mL) and the “maximum levels of neurotrophic activity” value ([6]; 48 h, ViaLight and Tuj1 counts, normalized to 20 ng/ml BDNF) was 80-100 % of that of BDNF. For the same compound, the pEC50 ([6]; Mus musculus, Hippocampal neuron, 48 h, ViaLight and Tuj1 counts, read-out: half-maximal effective concentration (EC50), neurotrophic activity) was 6.30 to 6.52 and the “neurotrophic activity in the presence of function-blocking anti-TrkB^ECD antibody” value [6] was “reduction”.

Reference: publication PMC7710018, “Restoration of motor learning in a mouse model of Rett syndrome following long-term treatment with a novel small-molecule activator of TrkB” (Disease Models & Mechanisms, 2020)
